Results from US5684151A, “1-arylsulphonyl, arylcarbonyl and 1-arylphosphonyl-3-phenyl-1,4,5,6-tetrahydropyridazines” (priority 1995, dated 1997).
Read-outs that look alike come from different tables or passages of the source.

What was measured:
[1] = tested on: mouse (MC3T3-E1) and human (TE-85) osteoblast-line cells; assay type: cell-based
Summary of the method: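 MC3T3-E1 or TE-85 cells were plated overnight in DMEM/25 mM HEPES/10% FBS and then preincubated 24 h in 0.1% FBS. Compounds were added for 20 h, followed by a 4 h pulse of 0.4 μCi ^3H-thymidine. Incorporated radioactivity served as the proliferation index, expressed as % of control (control = 100%).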

[2] = biological target: T1, progestin receptor from rabbit uterus (Oryctolagus cuniculus, UniProt P06186); experiment: Progestin receptor binding (3H-R5020 displacement); conditions: rabbit uterine cytosol, 4° C., 18 h, read-out: IC50: Binding affinity for the progestin receptor from rabbit uterus
T1 construct: Cytosolic progestin receptor were obtained by mixing rabbit uterine tissue with a Tris buffer; from tissue; host or cells: rabbit uterus cytosol
Summary of the method: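 Rabbit uterine cytosol in Tris buffer pH 7.4 with EDTA, DTT and molybdate was incubated with 3H-R5020 and test compound (5% DMSO final) at 4 °C for about 18 h. Bound ligand was separated with dextran-coated charcoal and counted by scintillation; IC50 is 50% radioligand displacement, with nonspecific binding defined by excess unlabelled ligand.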

T1 sequence (P06186 whole entry): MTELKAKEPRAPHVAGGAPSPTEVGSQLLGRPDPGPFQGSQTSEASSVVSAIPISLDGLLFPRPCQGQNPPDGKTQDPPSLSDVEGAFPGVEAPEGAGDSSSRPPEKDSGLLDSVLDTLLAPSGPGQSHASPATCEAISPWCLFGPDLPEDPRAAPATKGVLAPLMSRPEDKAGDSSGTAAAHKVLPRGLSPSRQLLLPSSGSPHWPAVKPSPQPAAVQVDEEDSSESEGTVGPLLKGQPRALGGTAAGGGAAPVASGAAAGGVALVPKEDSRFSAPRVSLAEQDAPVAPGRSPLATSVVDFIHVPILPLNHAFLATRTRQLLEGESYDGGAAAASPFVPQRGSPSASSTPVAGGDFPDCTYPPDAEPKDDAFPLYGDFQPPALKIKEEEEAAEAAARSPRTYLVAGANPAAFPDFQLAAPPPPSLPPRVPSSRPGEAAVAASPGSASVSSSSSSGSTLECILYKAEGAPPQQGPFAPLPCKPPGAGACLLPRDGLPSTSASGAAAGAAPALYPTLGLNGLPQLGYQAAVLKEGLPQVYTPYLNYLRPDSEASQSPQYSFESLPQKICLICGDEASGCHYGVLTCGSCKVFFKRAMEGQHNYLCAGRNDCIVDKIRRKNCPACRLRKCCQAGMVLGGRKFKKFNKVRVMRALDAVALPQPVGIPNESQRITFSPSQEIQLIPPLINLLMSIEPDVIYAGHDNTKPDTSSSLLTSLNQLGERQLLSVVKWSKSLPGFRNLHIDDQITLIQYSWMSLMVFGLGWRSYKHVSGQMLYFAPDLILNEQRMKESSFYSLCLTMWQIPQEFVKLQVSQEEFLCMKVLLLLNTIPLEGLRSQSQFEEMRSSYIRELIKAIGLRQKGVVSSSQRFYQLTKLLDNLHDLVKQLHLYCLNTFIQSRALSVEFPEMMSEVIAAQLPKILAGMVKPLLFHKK

Cc1ccc(S(=O)(=O)N2N=C(c3ccccc3)CC3Cc4ccccc4C32)cc1 (stereo not drawn) [Compound 158, 1,4,4a,9a,-Tetrahydro-4-(4-methylbenzenesulfonyl)-2-phenyl-3,4-diazafluorene Hemihydrate]
Osteoblast Cell Proliferation, 3H-thymidine incorporation vs control (100%) ([1]; 10^-6): 105%
Osteoblast Cell Proliferation, 3H-thymidine incorporation vs control (100%) ([1]; 10^-7): 102%
Osteoblast Cell Proliferation, 3H-thymidine incorporation vs control (100%) ([1]; 10^-8): 122%
Osteoblast Cell Proliferation, 3H-thymidine incorporation vs control (100%) ([1]; 10^-9): 114%
Osteoblast Cell Proliferation, 3H-thymidine incorporation vs control (100%) ([1]; 10^-10): 119%
IC50 [2]: 3 µM

O=S(=O)(c1cc(C(F)(F)F)cc(C(F)(F)F)c1)N1CCCC(c2ccc(Cl)cc2)=N1 [Compound 33]
Osteoblast Cell Proliferation, 3H-thymidine incorporation vs control (100%) ([1]; 10^-6): 96%
Osteoblast Cell Proliferation, 3H-thymidine incorporation vs control (100%) ([1]; 10^-7): 107%
Osteoblast Cell Proliferation, 3H-thymidine incorporation vs control (100%) ([1]; 10^-8): 117%
Osteoblast Cell Proliferation, 3H-thymidine incorporation vs control (100%) ([1]; 10^-9): 127%
Osteoblast Cell Proliferation, 3H-thymidine incorporation vs control (100%) ([1]; 10^-10): 152%
IC50 [2]: 0.009 µM

O=S(=O)(c1ccc2ccccc2c1)N1CCCC(c2ccccc2)=N1 [Compound 51]
Osteoblast Cell Proliferation, 3H-thymidine incorporation vs control (100%) ([1]; 10^-6): 119%
Osteoblast Cell Proliferation, 3H-thymidine incorporation vs control (100%) ([1]; 10^-7): 120%
Osteoblast Cell Proliferation, 3H-thymidine incorporation vs control (100%) ([1]; 10^-8): 144%
Osteoblast Cell Proliferation, 3H-thymidine incorporation vs control (100%) ([1]; 10^-9): 126%
Osteoblast Cell Proliferation, 3H-thymidine incorporation vs control (100%) ([1]; 10^-10): 158%
IC50 [2]: 0.203 µM

COc1ccc(C2=NN(S(=O)(=O)c3ccc(C)cc3)CCC2)cc1 [Compound 3]
Osteoblast Cell Proliferation, 3H-thymidine incorporation vs control (100%) ([1]; 10^-6): 92%
Osteoblast Cell Proliferation, 3H-thymidine incorporation vs control (100%) ([1]; 10^-7): 110%
Osteoblast Cell Proliferation, 3H-thymidine incorporation vs control (100%) ([1]; 10^-8): 115%
Osteoblast Cell Proliferation, 3H-thymidine incorporation vs control (100%) ([1]; 10^-9): 138%
Osteoblast Cell Proliferation, 3H-thymidine incorporation vs control (100%) ([1]; 10^-10): 118%
IC50 [2]: 10 µM

CC(C)(C)c1ccc(C(=O)N2CCCC(c3ccc(Cl)cc3)=N2)cc1 [Compound 195]
Osteoblast Cell Proliferation, 3H-thymidine incorporation vs control (100%) ([1]; 10^-6): 103%
Osteoblast Cell Proliferation, 3H-thymidine incorporation vs control (100%) ([1]; 10^-7): 114%
Osteoblast Cell Proliferation, 3H-thymidine incorporation vs control (100%) ([1]; 10^-8): 125%
Osteoblast Cell Proliferation, 3H-thymidine incorporation vs control (100%) ([1]; 10^-9): 127%
Osteoblast Cell Proliferation, 3H-thymidine incorporation vs control (100%) ([1]; 10^-10): 136%
IC50 [2]: 100 µM

COc1ccc(C2=NN(S(=O)(=O)c3ccc4ccccc4c3)CCC2)cc1 [Compound 65]
Osteoblast Cell Proliferation, 3H-thymidine incorporation vs control (100%) ([1]; 10^-6): 90%
Osteoblast Cell Proliferation, 3H-thymidine incorporation vs control (100%) ([1]; 10^-7): 98%
Osteoblast Cell Proliferation, 3H-thymidine incorporation vs control (100%) ([1]; 10^-8): 94%
Osteoblast Cell Proliferation, 3H-thymidine incorporation vs control (100%) ([1]; 10^-9): 88%
Osteoblast Cell Proliferation, 3H-thymidine incorporation vs control (100%) ([1]; 10^-10): 80%
IC50 [2]: 0.057 µM

COc1ccc(C(=O)N2CCCC(c3ccc(OC)cc3)=N2)cc1 [Compound 182]
Osteoblast Cell Proliferation, 3H-thymidine incorporation vs control (100%) ([1]; 10^-6): 95%
Osteoblast Cell Proliferation, 3H-thymidine incorporation vs control (100%) ([1]; 10^-7): 108%
Osteoblast Cell Proliferation, 3H-thymidine incorporation vs control (100%) ([1]; 10^-8): 118%
Osteoblast Cell Proliferation, 3H-thymidine incorporation vs control (100%) ([1]; 10^-9): 139%
Osteoblast Cell Proliferation, 3H-thymidine incorporation vs control (100%) ([1]; 10^-10): 115%
IC50 [2]: 100 µM

CCCCc1ccc(C2=NN(S(=O)(=O)c3ccc(I)cc3)CCC2)cc1 [Compound 71]
Osteoblast Cell Proliferation, 3H-thymidine incorporation vs control (100%) ([1]; 10^-6): 110%
Osteoblast Cell Proliferation, 3H-thymidine incorporation vs control (100%) ([1]; 10^-7): 114%
Osteoblast Cell Proliferation, 3H-thymidine incorporation vs control (100%) ([1]; 10^-8): 99%
Osteoblast Cell Proliferation, 3H-thymidine incorporation vs control (100%) ([1]; 10^-9): 103%
Osteoblast Cell Proliferation, 3H-thymidine incorporation vs control (100%) ([1]; 10^-10): 98%
IC50 [2]: 10 µM
